We go through 15 compounds from patent publication US5716971A, “Pyridine derivatives, their production and use” (Takeda Chemical Industries, Ltd., priority 1993, dated 1998).

Assay [1] relates to anesthetized dogs. Nature of the assay: Action of increasing coronary blood flow in anesthetized dogs (administration into coronary artery). Type of assay: in vivo, dog. The note with it: injected into coronary artery, anesthetized Beagle dogs. Here is the method: Action of increasing coronary blood flow in anesthetized dogs (Administration into coronary artery) Method: Beagle dogs (10 to 12 kg body weight) were anesthetized with pentobarbital and subjected to thoractomy under artificial respiration. A by-pass fitted with an electromagnetic flowmeter (Nippon Koden) was prepared between the left coronary artery and left carotid artery,and the volume of coronary blood flow was measured. […]
Maximal change rate against the value measured before the administration (% of basal flow) and the duration period [shown in terms of the time (T1/2) in which the activity is reduced to half] are shown in Table 67. As a result, it is apparent that the compounds of this invention show action of increasing coronary blood flow.

Assay [2] deals with Spontaneously hypertensive rats. The assay is described as follows: Hypotensive activity in rats (Tail Cuff Method), oral. Type of assay: in vivo. The note with it: Rattus norvegicus, SHR. Here is the method: Hypotensive activity in rats (Tail Cuff Method)
Spontaneously hypertensive rats (SHR, male, 20 to 23 week old) were warmed up to 36° C. The blood pressure at the tail aorta was measured by the tail cuff method. The blood pressure was measured three times, i.e. before oral administration of the test compound, two hours after the administration and five hours after the administration. The test compound was orally administered in the state of a suspension in gum arabic.
Maximal, hypotensive effect against the blood pressure before the administration is shown as % pre. in Table 66. As a result, it is apparent that the compounds of this invention show hypotensive activity.

The subject of assay [3] is specimen of rat aorta. The assay is described as follows: Vasorelaxation activity in a specimen of rat aorta: contraction caused by TEA and BaCl2. The note with it: TEA (30-45 mM) and BaCl2 (0.3 mM) contraction, read-out: constriction inhibitory ratio. On the procedure:
Vasorelaxation activity in a specimen of rat aorta Effects on contraction caused by tetraethylammonium chloride (TEA) and barium chloride (BaCl2)
(§1) Male Wister rats (10 to 13 week old were employed for the experiment. After dehematization, the aorta was excised and a ring specimen (5 mm length) was prepared. The specimen was suspended in a bath filled with oxygenated (95% O2 -5%CO2) Krebs solution (36° C.). The ring specimen was fixed at one end and the other end was connected to a transducer (Nippon Koden) for recording tension to determine the tension. After a stabilization period of one hour, TEA (30-45 mM) and BaCl2 (0.3 mM) were added to the bath to cause vasoconstriction. After the constriction had reached a steady state (after about 15 minutes), a test compound was added to the bath and its relaxation activity was measured.

The test system of assay [4] is specimen of rat aorta. Nature of the assay: Vasorelaxation activity in a specimen of rat aorta: contraction caused by KCl. The settings on record: read-out: constriction inhibitory ratio. On the procedure:
as §1
Vasorelaxation activity in a specimen of rat aorta Effects on contraction caused by potassium chloride (KCl)
The same experiment was conducted as in Experiment 1, excepting the use of KCl ([…]) instead of TEA and BaCl2

[5] abbreviates: after 2 hours, read-out: Maximal hypotensive effect against blood pressure before administration (% pre.), after 2 hours.
Setting [6] is: after 5 hours, read-out: Maximal hypotensive effect against blood pressure before administration (% pre.), after 5 hours.

SMILES strings stand for the structures. Read-outs that look alike come from different tables or passages of the source.

As to `CC(C)(C)O/N=C(/c1cc(F)c(Cl)cc1O)c1ncccc1O` [Compound 40, (Z)-2-(4-chloro-5-fluoro-2-hydroxybenzoyl)-3-hydroxypyridine O-t-butyloxime], in assay [1] (30 ug/day), the “duration (T1/2): time in which the activity is reduced to half” value is given as 2.8 min. Also, the inhibition in vivo at 10 mg/kg in assay [2] (setting [5]) was 30%; in assay [2] (setting [6]), 11%. The inhibition at 1 µM in assay [3] came to 85%; in assay [4], 0%. Besides, the values for the inhibition at 3 µM in assay [3] and in assay [4] were 72% and 0%, respectively.
With `CC(C)(C)O/N=C(/c1cc(Br)c(Cl)cc1O)c1ncccc1O` [Compound 38, (Z)-2-(5-bromo-4-chloro-2-hydroxybenzoyl)-3-hydroxypyridine O-t-butyloxime], the “duration (T1/2): time in which the activity is reduced to half” value in assay [1] (30 ug/day) was 4.7 min. The figures for the inhibition in vivo at 10 mg/kg in assay [2] (setting [5]) and in assay [2] (setting [6]) were 29% and 13%, respectively. In addition, the figures for the inhibition at 1 µM in assay [3] and in assay [4] were 92% and 0%, respectively. The inhibition at 3 µM in assay [3] is 100%; in assay [4], 1%.
As for `CC(C)(C)O/N=C(/c1cc(F)c(C#N)cc1O)c1c(O)ccc[n+]1[O-]` [Compound 177, (Z)-2-(4-cyano-5-fluoro-2-hydroxybenzoyl)-3-hydroxy pyridine N-oxide O-t-butyloxime], the “duration (T1/2): time in which the activity is reduced to half” value in assay [1] (10 μg/dog administration) is 9.8 min. Moreover, in assay [3], the inhibition at 1 µM was found to be 50% and the inhibition at 3 µM was determined as 100%. Moreover, in assay [4], the inhibition at 1 µM is 0% and the inhibition at 3 µM worked out at 0%.
On to `CC(C)(C)O/N=C(/c1cc(Br)ccc1O)c1c(O)ccc[n+]1[O-]` [Compound 63, (Z)-2-(5-bromo-2-hydroxybenzoyl)-3-hydroxypyridine N-oxide O-t-butyloxime], for which the “duration (T1/2): time in which the activity is reduced to half” value in assay [1] (30 ug/day) is recorded as 2.4 min. For the same compound, in assay [2] (setting [5]), the inhibition in vivo at 10 mg/kg was 42%. Moreover, the inhibition in vivo at 10 mg/kg in assay [2] (setting [6]) is 54%. In addition, in assay [3], the inhibition at 1 µM is 13%, the inhibition at 3 µM was 61% and the inhibition at 10 µM was 100%. Further, in assay [4], the inhibition at 1 µM turned out to be 0%, the inhibition at 3 µM turned out to be 0% and the inhibition at 10 µM was 0%.
As for `CC(C)(C)O/N=C(/c1cc(Cl)c(Cl)cc1O)c1ncccc1O` [Compound 32, (Z)-2-(4,5-dichloro-2-hydroxybenzoyl)-3-hydroxypyridine O-t-butyloxime], in assay [1] (30 ug/day), the “duration (T1/2): time in which the activity is reduced to half” value turned out to be 3.0 min. Besides, the values for the inhibition in vivo at 10 mg/kg in assay [2] (setting [5]) and in assay [2] (setting [6]) were 19% and 18%, respectively. Also, the values for the inhibition at 1 µM in assay [3] and in assay [4] were 87% and -2%, respectively. The inhibition at 3 µM in assay [3] came out at 100%; in assay [4], 11%.
On to `CC(C)(C)O/N=C(/c1cc(Cl)c(F)cc1O)c1c(O)ccc[n+]1[O-]` [Compound 58, (Z)-2-(5-chloro-4-fluoro-2-hydroxybenzoyl)-3-hydroxypyridine N-oxide O-t-butyloxime], for which the “duration (T1/2): time in which the activity is reduced to half” value in assay [1] (30 ug/day) is 47.7 min. For the same compound, the inhibition in vivo at 1 mg/kg in assay [2] (setting [5]) was 35%; in assay [2] (setting [6]) it was 19%. For the same compound, the results for the inhibition in vivo at 10 mg/kg in assay [2] (setting [5]) and in assay [2] (setting [6]) were 55% and 45%, respectively. For the same compound, the inhibition at 1 µM in assay [3] was 84%; in assay [4] it was 0%. Further, the figures for the inhibition at 3 µM in assay [3] and in assay [4] were 94% and 0%, respectively.
Turning to `CC(C)(C)O/N=C(/c1cc(F)c(F)cc1O)c1c(O)ccc[n+]1[O-]` [Compound 59, (Z)-2-(4,5-difluoro-2-hydroxybenzoyl)-3-hydroxypyridine N-oxide O-t-butyloxime], the “duration (T1/2): time in which the activity is reduced to half” value in assay [1] (30 ug/day) stood at 15.1 min. Besides, in assay [2] (setting [5]), the inhibition in vivo at 1 mg/kg came to 22% and the inhibition in vivo at 10 mg/kg was determined as 45%. Besides, in assay [2] (setting [6]), the inhibition in vivo at 1 mg/kg worked out at 10% and the inhibition in vivo at 10 mg/kg was 54%. In addition, in assay [3], the inhibition at 1 µM came out at 6% and the inhibition at 3 µM was determined as 100%.
`CC(C)(C)O/N=C(/c1cc(Br)ccc1O)c1ncccc1O` [Compound 6, (Z)-2-(5-bromo-2-hydroxybenzoyl)-3-hydroxypyridine O-t-butyloxime]: in assay [1] (30 ug/day), the “duration (T1/2): time in which the activity is reduced to half” value was found to be 1.5 min. In assay [3], the inhibition at 1 µM amounted to 62% and the inhibition at 3 µM is 82%. Besides, in assay [4], the inhibition at 1 µM was determined as 5% and the inhibition at 3 µM was 17%.
Turning to `CC(C)(C)O/N=C(/c1cc(Cl)c(C#N)cc1O)c1c(O)ccc[n+]1[O-]` [Compound 175, (Z)-2-(5-chloro-4-cyano-2-hydroxybenzoyl)-3-hydroxy pyridine N-oxide O-t-butyloxime], the “duration (T1/2): time in which the activity is reduced to half” value in assay [1] (10 μg/dog administration) was determined as 34.3 min. Further, the inhibition at 1 µM in assay [3] stood at 100%; in assay [4] it was 4%.
For the compound `CC(C)(C)O/N=C(/c1cc(F)c(Cl)cc1O)c1c(O)ccc[n+]1[O-]` [Compound 56, (Z)-2-(4-chloro-5-fluoro-2-hydroxybenzoyl)-3-hydroxypyridine N-oxide O-t-butyloxime], the “duration (T1/2): time in which the activity is reduced to half” value in assay [1] (30 ug/day) is on record as 27.3 min. In addition, the inhibition in vivo at 10 mg/kg in assay [2] (setting [5]) amounted to 51%; in assay [2] (setting [6]), 42%. Moreover, the inhibition at 1 µM in assay [3] was determined as 100%.
For `CC(C)(C)O/N=C(/c1cc(Br)c(C#N)cc1O)c1c(O)ccc[n+]1[O-]` [Compound 129, (Z)-2-(5-bromo-4-cyano-2-hydroxybenzoyl)-3-hydroxy pyridine N-oxide O-t-butyloxime], the “duration (T1/2): time in which the activity is reduced to half” value in assay [1] (10 μg/dog administration) was 42.9 min. Also, the inhibition at 1 µM in assay [3] worked out at 100%; in assay [4] it was 18%.
On to `CC(C)(C)O/N=C(/c1cc(Br)c(Cl)cc1O)c1cccc[n+]1[O-]` [Compound 101, (Z)-2-(5-bromo-4-chloro-2-hydroxybenzoyl)pyridine N-oxide O-t-butyloxime], for which the “duration (T1/2): time in which the activity is reduced to half” value in assay [1] (30 ug/day) stood at 7.9 min. Further, the inhibition in vivo at 3 mg/kg is 10% in assay [2] (setting [5]) and 11% in assay [2] (setting [6]). Further, the inhibition at 1 µM is 71% in assay [3] and 3% in assay [4]. In addition, the figures for the inhibition at 3 µM in assay [3] and in assay [4] were 65% and 25%, respectively.
Consider `COc1cc(O)c(/C(=N/OC(C)(C)C)c2ncccc2O)cc1Br` [Compound 43], for which, in assay [1] (30 ug/day), the “duration (T1/2): time in which the activity is reduced to half” value is reported as 1.7 min. In assay [3], the inhibition at 3 µM turned out to be 63% and the inhibition at 10 µM is 75%. In addition, in assay [4], the inhibition at 3 µM is 0% and the inhibition at 10 µM worked out at 5%.
For the compound `CC(C)(C)ON=C(c1cc(Cl)ccc1O)c1ncccc1O` [Compound 14], in assay [1] (30 ug/day), the “duration (T1/2): time in which the activity is reduced to half” value is recorded as 1.6 min. Further, in assay [3], the inhibition at 1 µM came out at 71% and the inhibition at 3 µM came out at 90%. In addition, in assay [4], the inhibition at 1 µM turned out to be 2% and the inhibition at 3 µM turned out to be 11%.
With `CC(C)(C)O/N=C(/c1cc(Cl)c(Cl)cc1O)c1cccc[n+]1[O-]` [Compound 95, (Z)-2-(4,5-dichloro-2-hydroxybenzoyl)pyridine N-oxide O-t-butyloxime], the “duration (T1/2): time in which the activity is reduced to half” value in assay [1] (30 ug/day) amounted to 4.0 min. Besides, in assay [3], the inhibition at 1 µM was 59% and the inhibition at 3 µM is 71%. In assay [4], the inhibition at 1 µM worked out at 3% and the inhibition at 3 µM stood at 12%.
